Measurements reported in article PMC3344910 (Bioorganic & medicinal chemistry, 2012).
Like-named read-outs stand apart in the source and are kept apart here.

Legend:
[1] = target: T1, KOP receptors (Homo sapiens, UniProt P41145); settings: compared to 2 (U50,488) ref 32; cited from earlier work
[2] = target: T1, KOP receptors; settings: compared to 1 ref 48; cited from earlier work
[3] = target: T1, KOP receptors; assay: biochemical; format: biochemical
[4] = target: T1, KOP receptors; assay: biochemical; format: binding
[5] = target: human MOP receptor (Homo sapiens, UniProt P35372); assay: biochemical; format: binding
Chain of human MOP receptor (P35372 whole entry): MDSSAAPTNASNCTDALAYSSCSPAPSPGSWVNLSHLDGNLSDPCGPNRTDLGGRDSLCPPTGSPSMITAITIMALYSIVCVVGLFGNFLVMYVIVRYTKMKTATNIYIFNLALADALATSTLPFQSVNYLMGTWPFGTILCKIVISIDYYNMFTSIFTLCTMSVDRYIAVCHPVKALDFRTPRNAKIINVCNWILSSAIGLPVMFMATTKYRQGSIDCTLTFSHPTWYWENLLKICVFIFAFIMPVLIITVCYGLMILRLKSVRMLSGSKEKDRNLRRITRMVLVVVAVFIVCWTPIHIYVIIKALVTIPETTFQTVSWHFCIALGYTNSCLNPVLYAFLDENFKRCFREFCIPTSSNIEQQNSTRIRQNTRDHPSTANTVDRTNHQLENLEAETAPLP

[6] = target: human DOP receptor (Homo sapiens, UniProt P41143); assay: biochemical; format: binding
Chain of human DOP receptor (P41143 whole entry): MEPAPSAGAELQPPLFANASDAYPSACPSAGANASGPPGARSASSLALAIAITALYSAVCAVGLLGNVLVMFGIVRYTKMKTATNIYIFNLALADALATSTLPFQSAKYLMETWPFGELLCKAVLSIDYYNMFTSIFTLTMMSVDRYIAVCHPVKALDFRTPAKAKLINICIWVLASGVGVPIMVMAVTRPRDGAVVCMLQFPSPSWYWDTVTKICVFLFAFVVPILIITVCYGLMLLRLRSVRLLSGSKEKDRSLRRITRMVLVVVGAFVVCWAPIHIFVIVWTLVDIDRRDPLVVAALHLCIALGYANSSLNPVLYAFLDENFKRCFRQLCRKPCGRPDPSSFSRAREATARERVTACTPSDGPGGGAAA

[7] = target: T1, KOP receptors; settings: read-out: KOP Ki, previous report; cited from earlier work
[8] = target: T1, KOP receptors; format: cell-based

T1 sequence (P41145 whole entry): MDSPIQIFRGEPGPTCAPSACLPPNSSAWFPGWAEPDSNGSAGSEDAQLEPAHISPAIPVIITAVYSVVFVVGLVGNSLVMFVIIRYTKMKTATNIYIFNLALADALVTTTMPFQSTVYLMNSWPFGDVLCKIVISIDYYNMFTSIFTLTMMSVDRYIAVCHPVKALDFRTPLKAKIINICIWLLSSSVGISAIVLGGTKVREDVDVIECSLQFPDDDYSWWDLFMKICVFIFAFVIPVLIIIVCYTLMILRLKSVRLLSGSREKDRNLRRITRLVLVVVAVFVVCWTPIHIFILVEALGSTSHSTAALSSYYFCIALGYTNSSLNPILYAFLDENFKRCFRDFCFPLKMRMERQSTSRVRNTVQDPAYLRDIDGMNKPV

## COC(=O)[C@@H]1C[C@H](OC(C)=O)C(=O)[C@H]2[C@@]1(C)CC[C@H]1C(=O)O[C@@H](c3ccoc3)C[C@]21C [Compound 3, (2R,4aR,6aR,7R,9S,10aS,10bR)-methyl 9-acetoxy-2-(furan-3-yl)-6a,10b-dimethyl-4,10-dioxododecahydro-1H-benzo[f]isochromene-7-carboxylate]
[1]
  Emax, [35S]GTP-γ-S assay, previous report: 73 ± 6
[2]
  Emax, β-arrestin 2 DiscoveRx assay: 126 ± 10
[3]
  less potent than 1 in the [35S]GTP-γ-S assay: 18 fold

## COC(=O)[C@@H]1C[C@H](OC(C)=O)C(=O)[C@H]2[C@@]1(C)CC[C@H]1C(=O)OC(/C=C\c3ccoc3)C[C@]21C (stereo partly drawn) [Compound 9, (4aR,6aR,7R,9S,10aS,10bR)-methyl 9-acetoxy-2-((Z)-2-(furan-3-yl)vinyl)-6a,10b-dimethyl-4,10-dioxododecahydro-1H-benzo[f]isochromene-7-carboxylate]
[4]
  Ki: 0.03 ± 0.004 µM
  higher affinity for the KOP receptor compared to trans analogue 8: ~40 fold
[5]
  Ki: 2.6 µM
[3]
  EC50: 1.37 µM
[3]; read-out: KOP Emax ± SD, stimulation of [35S]GTP-γ-S binding
  Emax: 105 ± 4%
[6]
  Ki: > 10 µM
[6]; read-out: DOP percent of control produced by the 10 μM test drug
  remaining activity at 10 µM: 94%

## COC(=O)[C@@H]1C[C@H](OC(C)=O)C(=O)[C@H]2[C@@]1(C)CC[C@H]1C(=O)O[C@H](C(=O)c3ccccc3)C[C@]21C [Compound 12, (2S,4aR,6aR,7R,9S,10aS,10bR)-methyl 9-acetoxy-2-benzoyl-6a,10b-dimethyl-4,10-dioxododecahydro-1H-benzo[f]isochromene-7-carboxylate]
[3]
  EC50: 1.37 ± 0.18 µM

## COC(=O)[C@@H]1C[C@H](OC(C)=O)C(=O)[C@H]2[C@@]1(C)CC[C@H]1C(=O)O[C@H](C(=O)c3cccc(C(N)=O)c3)C[C@]21C [Compound 19, (2S,4aR,6aR,7R,9S,10aS,10bR)-methyl 9-acetoxy-2-(3-carbamoylbenzoyl)-6a,10b-dimethyl-4,10-dioxododecahydro-1H-benzo[f]isochromene-7-carboxylate]
[4]
  increased KOP affinity compared to 17: approximately 3 fold
[3]
  less potent than 1 in the [35S]GTP-γ-S assay: 18 fold

## COC(=O)[C@@H]1C[C@H](OC(C)=O)C(=O)[C@H]2[C@@]1(C)CC[C@H]1C(=O)O[C@H](C(=O)c3cccc(C#N)c3)C[C@]21C [Compound 20, (2S,4aR,6aR,7R,9S,10aS,10bR)-methyl 9-acetoxy-2-(3-cyanobenzoyl)-6a,10b-dimethyl-4,10-dioxododecahydro-1H-benzo[f]isochromene-7-carboxylate]
[4]
  decreased KOP affinity compared to 19: 6 fold

## COC(=O)[C@@H]1C[C@H](OC(C)=O)C(=O)[C@H]2[C@@]1(C)CC[C@H]1C(=O)O[C@H](C(=O)c3ccco3)C[C@]21C [Compound 23, (2S,4aR,6aR,7R,9S,10aS,10bR)-methyl 9-acetoxy-2-(furan-2-carbonyl)-6a,10b-dimethyl-4,10-dioxododecahydro-1H-benzo[f]isochromene-7-carboxylate]
[7]
  Ki: > 1 µM

## COC(=O)[C@@H]1C[C@H](OC(C)=O)C(=O)[C@H]2[C@@]1(C)CC[C@H]1C(=O)O[C@H](C(=O)c3ccsc3)C[C@]21C [Compound 26, (2S,4aR,6aR,7R,9S,10aS,10bR)-methyl 9-acetoxy-6a,10b-dimethyl-4,10-dioxo-2-(thiophene-3-carbonyl)dodecahydro-1H-benzo[f]isochromene-7-carboxylate]
[3]
  more potent than 25 as an agonist in the [35S]GTP-γ-S assay: approximately 3 fold

## C/C=C\C(=O)[C@@H]1C[C@]2(C)[C@H]3C(=O)[C@@H](OC(C)=O)C[C@@H](C(=O)OC)[C@]3(C)CC[C@H]2C(=O)O1 [Compound 30, (2S,4aR,6aR,7R,9S,10aS,10bR)-methyl 9-acetoxy-2-((Z)-but-2-enoyl)-6a,10b-dimethyl-4,10-dioxododecahydro-1H-benzo[f]isochromene-7-carboxylate]
[4]
  decrease in KOP affinity compared to 12: 4 fold

## COC(=O)[C@@H]1C[C@H](OC(C)=O)C(=O)[C@H]2[C@@]1(C)CC[C@H]1C(=O)O[C@H](c3ccco3)C[C@]21C [Compound 31, (2S,4aR,6aR,7R,9S,10aS,10bR)-methyl 9-acetoxy-2-(furan-2-yl)-6a,10b-dimethyl-4,10-di-oxododecahydro-1H-benzo[f]isochromene-7-carboxylate]
[4]
  Ki: 0.0087 ± 0.0004 µM
  increase in affinity at KOP receptors compared to 23: 9 fold
[3]
  less potent than 1 in the [35S]GTP-γ-S assay: 3 fold
[8]
  decrease in potency compared to 1, Ca2+ mobilization: 2 fold
